Data reported in patent publication US8574831B2, “Mutational profiles in HIV-1 reverse transcriptase correlated with phenotypic drug resistance” (Virco N.V., priority 2000, dated 2013).

Tested on: HIV with mutations in the HIV protease sequence
Assay: Phenotypic fold resistance to protease inhibitors, protease mutations 84A/84L/84C/54M/54L/54V in a background (Examples 8-13)
Format: cell-based, HIV-1
Summary of the method: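 Fold-resistance equals chimeric-virus IC50 divided by IC50 of a parallel wild-type reference HIV-1 strain. Chimeras come from PCR-amplified PR/RT genes recombined into PR/RT-deleted HXB2 proviral DNA inside CD4+ T cells, then cultured with graded drug concentrations.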

CC(C)c1nc(CN(C)C(=O)N[C@H](C(=O)N[C@@H](Cc2ccccc2)C[C@H](O)[C@H](Cc2ccccc2)NC(=O)OCc2cncs2)C(C)C)cs1 [Ritonavir, ritonavir]
mean fold increase in resistance (Table 9 #1, protease genotype WT): 0.6 fold
mean fold increase in resistance (Table 9 #2, protease genotype 10I): 1.15 fold
mean fold increase in resistance (Table 9 #3, protease genotype 46I): 0.8 fold
mean fold increase in resistance (Table 9 #4, protease genotype 46I + 84V): 4.6 fold
mean fold increase in resistance (Table 9 #5, protease genotype 46I + 84A): 51.8 fold
mean fold increase in resistance (Table 9 #6, protease genotype 10I + 46I): 1.5 fold
mean fold increase in resistance (Table 9 #7, protease genotype 10I + 46I + 84V): 11.9 fold
mean fold increase in resistance (Table 9 #8, protease genotype 10I + 46I + 84A): 77.3 fold
mean fold increase in resistance (Table 9 #9, protease genotype 10L/I + 46I + 84A): 114 fold
mean fold increase in resistance (Table 9 #10, protease genotype 10I + 46I + 84A): 44.5 fold
mean fold increase in resistance (Table 9 #11, protease genotype 46I + 71V): 1.4 fold
mean fold increase in resistance (Table 9 #12, protease genotype 46I + 71V + 84V/I): 1.8 fold
mean fold increase in resistance (Table 9 #13, protease genotype 46I + 71V + 84A): 102.2 fold
mean fold increase in resistance (Table 9 #14, protease genotype 10F + 46I + 71V): 4.1 fold
mean fold increase in resistance (Table 9 #15, protease genotype 10I + 46I + 71V + 84V): 45.6 fold
mean fold increase in resistance (Table 9 #16, protease genotype 10I + 46I + 71V + 84A): 114.9 fold
mean fold increase in resistance (Table 9 #17, protease genotype 10V + 46I + 71T + 84A): 91.9 fold
mean fold increase in resistance (Table 9 #18, protease genotype 10I + 46I + 71V + 77I): 1.65 fold
mean fold increase in resistance (Table 9 #19, protease genotype 10I + 46I + 71V + 77I + 84V): 3.1 fold
mean fold increase in resistance (Table 9 #20, protease genotype 10I + 46I + 71V + 77I + 84A): 121.3 fold
mean fold increase in resistance (Table 9 #21, protease genotype 10I + 33L/I + 46I + 71V + 77V/I + 84A): 38.6 fold
mean fold increase in resistance (Table 10 #1, protease genotype 10I + 36I + 71V): 1.2 fold
mean fold increase in resistance (Table 10 #2, protease genotype 10I + 36I + 71I + 84V): 1.5 fold
mean fold increase in resistance (Table 10 #3, protease genotype 10I + 36I + 71I + 84L): 0.8 fold
mean fold increase in resistance (Table 11 #1, protease genotype WT): 0.6 fold
mean fold increase in resistance (Table 11 #2, protease genotype 84V): 2.4 fold
mean fold increase in resistance (Table 11 #3, protease genotype 84C): 2.9 fold
mean fold increase in resistance (Table 11 #4, protease genotype 10I): 1.2 fold
mean fold increase in resistance (Table 11 #5, protease genotype 10I + 84V): 6.5 fold
mean fold increase in resistance (Table 11 #6, protease genotype 10I + 84C): 5.4 fold
mean fold increase in resistance (Table 11 #7, protease genotype 77I): 0.4 fold
mean fold increase in resistance (Table 11 #8, protease genotype 77I + 84V): 5.0 fold
mean fold increase in resistance (Table 11 #9, protease genotype 77I + 84C): 2.8 fold
mean fold increase in resistance (Table 11 #10, protease genotype 77I + 84C): 3.2 fold
mean fold increase in resistance (Table 11 #11, protease genotype 10I + 24I + 36I + 46I + 71V + 84C): 47 fold
Fold change in IC50 (Table 12, V19263, genotype 77I): 0.4 fold
Fold change in IC50 (Table 12, V20160, genotype WT): 0.6 fold
Fold change in IC50 (Table 12, V021667, genotype 10I): 1.2 fold
Fold change in IC50 (Table 12, V030496, genotype 10I + 77I): 0.5 fold
Fold change in IC50 (Table 12, V048869, genotype 10I + 54M + 77I + 90M): 20.0 fold
Fold change in IC50 (Table 12, V048872, genotype 33F + 54M + 77I + 90M): 8.7 fold
Fold change in IC50 (Table 12, V048873, genotype 33F + 54M + 77I + 90M): 11.4 fold
Fold change in IC50 (Table 12, V048877, genotype 10I + 33F + 77I + 90M): 20.5 fold
Fold change in IC50 (Table 12, V048878, genotype 10I + 33F + 54M + 71V + 77I + 90M): 17.2 fold
Fold change in IC50 (Table 12, V048879, genotype 10I + 33F + 54M + 71V + 77I + 90M): 74.0 fold
Fold change in IC50 (Table 12, V048880, genotype 10I + 33F + 77I + 90M): 3.6 fold
Fold change in IC50 (Table 12, V052940, genotype 71V): 0.4 fold
Fold change in IC50 (Table 12, V052942, genotype 10I + 71V): 0.6 fold
Fold change in IC50 (Table 12, V052943, genotype 10I + 90M): 1.8 fold
Fold change in IC50 (Table 12, V052944, genotype 10I + 90M): 1.5 fold
Fold change in IC50 (Table 12, V052945, genotype 77I + 90M): 1.9 fold
Fold change in IC50 (Table 12, V052946, genotype 71V + 90M): 2.0 fold
Fold change in IC50 (Table 12, V052947, genotype 10I + 77I + 90M): 6.9 fold
Fold change in IC50 (Table 12, V052948, genotype 10I + 71V + 90M): 10.5 fold
Fold change in IC50 (Table 12, V052949, genotype 10I + 71V + 77I + 90M): 2.3 fold
Fold change in IC50 (Table 12, V052950, genotype 33F): 1.5 fold
Fold change in IC50 (Table 12, V052951, genotype 33F + 77I): 0.3 fold
Fold change in IC50 (Table 12, V052953, genotype 10I + 33F + 77I): 1.1 fold
Fold change in IC50 (Table 12, V052954, genotype 33F + 77I + 90M): 2.2 fold
Fold change in IC50 (Table 12, V052955, genotype 33F + 71V + 90M): 77.9 fold
Fold change in IC50 (Table 12, V052977, genotype 10I + 33F + 54M): 35.5 fold
Fold change in IC50 (Table 12, V052978, genotype 10I + 33F + 54M + 71V + 90M): 17.9 fold
Fold change in IC50 (Table 12, V052979, genotype 10I + 54M): 20.0 fold
Fold change in IC50 (Table 12, V052980, genotype 10I + 54M + 90M): 4.1 fold
Fold change in IC50 (Table 12, V052981, genotype 10I + 54M + 71V + 90M): 9.4 fold
Fold change in IC50 (Table 12, V052982, genotype 10I + 54M + 71V + 77I + 90M): 13.4 fold
Fold change in IC50 (Table 12, V053832, genotype 10I + 33F): 2.9 fold
